The target in the assay is T1, human vasopressin V1b receptor (Homo sapiens, UniProt P47901).
T1 construct: expressed in transfected cells; host or cells: CHO-K1 (cell line hV1b-3H2_CHO), membrane preparation
T1 sequence (P47901 1-424): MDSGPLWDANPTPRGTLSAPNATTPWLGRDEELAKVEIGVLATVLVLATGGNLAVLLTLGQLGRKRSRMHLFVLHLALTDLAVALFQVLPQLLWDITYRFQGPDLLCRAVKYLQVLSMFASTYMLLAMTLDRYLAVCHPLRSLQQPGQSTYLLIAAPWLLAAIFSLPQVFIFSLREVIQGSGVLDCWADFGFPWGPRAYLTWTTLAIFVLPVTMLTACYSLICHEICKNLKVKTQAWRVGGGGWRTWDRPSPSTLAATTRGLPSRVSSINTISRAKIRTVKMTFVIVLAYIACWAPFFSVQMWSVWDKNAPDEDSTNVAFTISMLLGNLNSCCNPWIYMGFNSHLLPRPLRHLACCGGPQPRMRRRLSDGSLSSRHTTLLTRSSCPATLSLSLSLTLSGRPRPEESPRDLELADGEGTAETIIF
The experiment in a line: Vasopressin V1b receptor binding assay. The conditions noted are these: membranes from CHO-K1 cells with stably expressed human V1b receptors; displacement of 1.5 nM 3H-AVP; read-out: V1b receptor affinity (affinity constant Ki). The method, boiled down:
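Membranes expressing human V1b receptor were incubated with radioligand and test compound (2% DMSO final) in 50 mM Tris, 10 mM MgCl2, 0.1% BSA, pH 7.4, for 60 min at room temperature, in triplicate. 1 uM AVP defined nonspecific binding. Bound ligand was separated by filtration and counted by scintillation; Ki came from nonlinear regression.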
Turning to `COc1ccc(S(=O)(=O)n2c(=O)n(C(C(=O)N(C)CCc3ccccn3)c3ccccc3)c3cc(Cl)ccc32)cc1` (stereo not drawn) [Example 120, 2-[6-Chloro-3-(4-methoxybenzenesulfonyl)-2-oxo-2,3-dihydrobenzimidazol-1-yl]-N-methyl-2-phenyl-N-(2-pyridin-2-ylethyl)acetamide], the Ki lay within 0.5 to 10 µM.
Take `COc1ccc(S(=O)(=O)n2c(=O)n(C(C(=O)N3CC[C@@H](NC4CCNCC4)C3)c3ccccc3)c3cc(Cl)ccc32)cc1` (stereo partly drawn) [Example 176, 5-Chloro-1-(4-methoxybenzenesulfonyl)-3-{2-oxo-1-phenyl-2-[(R)-3-(piperidin-4-ylamino)pyrrolidin-1-yl]ethyl}-1,3-dihydrobenzimidazol-2-one]: the Ki is under 0.1 µM.
The same measure for `COc1ccc(S(=O)(=O)n2c(=O)n(C(C(=O)N3CC[C@H](CN4CCN(Cc5ccccc5)CC4)C3)c3ccccc3)c3cc(C#N)ccc32)cc1` (stereo partly drawn) [Example 220, 3-{2-[(R)-3-(4-Benzyl-piperazin-1-ylmethyl)-pyrrolidin-1-yl]-2-oxo-1-phenylethyl}-1-(4-methoxy-benzenesulfonyl)-2-oxo-2,3-dihydro-1H-benzoimidazole-5-carbonitrile; compound with trifluoroacetic acid]: under 0.1 µM; for `COc1ccc(S(=O)(=O)n2c(=O)n(C(C(=O)N3CC[C@H](N(C)C4CCN(C)CC4)C3)c3ccccc3)c3cc(C#N)ccc32)cc1` (stereo partly drawn) [Example 211, 1-(4-Methoxybenzenesulfonyl)-3-(2-{(S)-3-[methyl-(1-methylpiperidin-4-yl)-amino]pyrrolidin-1-yl}-2-oxo-1-phenylethyl)-2-oxo-2,3-dihydro-1H-benzimidazole-5-carbonitrile]: under 0.1 µM.
With `CCCN1CCN(C2CCN(C(=O)C(c3ccc(OC)cc3)n3c(=O)n(S(=O)(=O)c4ccc(OC)cc4)c4ccc(Cl)cc43)C2)CC1` (stereo not drawn) [Example 78, 5-Chloro-1-(4-methoxybenzenesulfonyl)-3-{1-(4-methoxyphenyl)-2-oxo-2-[3-(4-propylpiperazin-1-yl)pyrrolidin-1-yl]ethyl}-1,3-dihydrobenzimidazol-2-one] the figure was under 0.1 µM; with `COc1ccc(S(=O)(=O)n2c(=O)n(C(C(=O)N3CCC(N4CCN(Cc5ccccc5)CC4)C3)c3ccccc3)c3cc(Cl)ccc32)cc1` (stereo not drawn) [Example 141, 3-{2-[3-(4-Benzylpiperazin-1-yl)-pyrrolidin-1-yl]-2-oxo-1-phenylethyl}-5-chloro-1-(4-methoxybenzenesulfonyl)-1,3-dihydrobenzimidazol-2-one], under 0.1 µM.
With `COc1ccc(S(=O)(=O)n2c(=O)n(C(C(=O)N3CCN(C4CCN(C)CC4)CC3)c3ccccc3OC)c3cc(Cl)ccc32)cc1` (stereo not drawn) [Example 9, 5-Chloro-1-(4-methoxybenzenesulfonyl)-3-{1-(2-methoxyphenyl)-2-[4-(1-methylpiperidin-4-yl)piperazin-1-yl]-2-oxoethyl}-1,3-dihydrobenzimidazol-2-one] the figure was 0.5 to 10 µM; with `COc1ccc(S(=O)(=O)n2c(=O)n(C(C(=O)NCCCN3CCNCC3)c3ccccc3)c3cc(Cl)ccc32)cc1` (stereo not drawn) [Example 135, 2-[6-Chloro-3-(4-methoxybenzenesulfonyl)-2-oxo-2,3-dihydrobenzimidazol-1-yl] 2-phenyl-N-(3-piperazin-1-ylpropyl)acetamide], 0.1 to 0.5 µM; with `COc1ccc(S(=O)(=O)n2c(=O)n(C(C(=O)N3CCN(c4ccncc4)CC3)c3cccc(OC)c3)c3cc(Cl)ccc32)cc1` (stereo not drawn) [Example 20, 5-Chloro-1-(4-methoxybenzenesulfonyl)-3-[1-(3-methoxyphenyl)-2-oxo-2-(4-pyridin-4-ylpiperazin-1-yl)ethyl]-1,3-dihydrobenzimidazol-2-one], under 0.1 µM.
As for `COc1ccc(S(=O)(=O)n2c(=O)n(C(C(=O)NCCCN3CCN(C)CC3)c3ccccc3)c3cc(Cl)ccc32)cc1` (stereo not drawn) [Example 137, 2-[6-Chloro-3-(4-methoxybenzenesulfonyl)-2-oxo-2,3-dihydrobenzimidazol-1-yl]-N-[3-(4-methylpiperazin-1-yl)propyl]-2-phenyl-acetamide], the inhibition constant Ki was in the range of 0.1 to 0.5 µM.
The same measure for `CCCN1CCN(C2CCCN(C(=O)C(c3ccccc3)n3c(=O)n(S(=O)(=O)c4ccc(OC)cc4)c4ccc(Cl)cc43)C2)CC1` (stereo not drawn) [Example 155, 5-Chloro-1-(4-methoxybenzenesulfonyl)-3-{2-oxo-1-phenyl-2-[3-(4-propylpiperazin-1-yl)piperidin-1-yl]ethyl}-1,3-dihydrobenzimidazol-2-one]: under 0.1 µM; for `COc1ccc(C(C(=O)N2CCN(c3ccncc3)CC2)n2c(=O)n(S(=O)(=O)c3ccc(OC)cc3)c3ccc(Cl)cc32)cc1` (stereo not drawn) [Example 33, 5-Chloro-1-(4-methoxybenzenesulfonyl)-3-[1-(4-methoxyphenyl)-2-oxo-2-(4-pyridin-4-ylpiperazin-1-yl)-ethyl]-1,3-dihydrobenzimidazol-2-one]: 0.1 to 0.5 µM.
On to `COc1ccc(S(=O)(=O)n2c(=O)n(C(C(=O)N3CC[C@H](N4CCN(C)CC4)C3)c3ccccc3)c3cc(C#N)ccc32)cc1` (stereo partly drawn) [Example 160, 1-(4-Methoxybenzenesulfonyl)-3-{2-[(S)-3-(4-methylpiperazin-1-yl)-pyrrolidin-1-yl]-2-oxo-1-phenylethyl}-2-oxo-2,3-dihydro-1H-benzimidazole-5-carbonitrile], for which the Ki was under 0.1 µM.
As for `N#Cc1ccc(S(=O)(=O)n2c(=O)n(C(C(=O)N3CCN(c4ccncc4)CC3)c3ccccc3)c3cc(C#N)ccc32)cc1` (stereo not drawn) [Example 51, 1-(4-Cyanobenzenesulfonyl)-2-oxo-3-[2-oxo-1-phenyl-2-(4-pyridin-4-ylpiperazin-1-yl)ethyl]-2,3-dihydro-1H-benzimidazole-5-carbonitrile], the inhibition constant (Ki) is 0.5 to 10 µM.
In the case of `CCCN1CCN([C@H]2CCN(C(=O)C(c3ccccc3)n3c(=O)n(S(=O)(=O)c4ccc(OC)cc4)c4ccc(Cl)cc43)C2)CC1` (stereo partly drawn) [Example 158, 5-Chloro-1-(4-methoxybenzenesulfonyl)-3-{2-oxo-1-phenyl-2-[(S)-3-(4-propylpiperazin-1-yl)pyrrolidin-1-yl]ethyl}-1,3-dihydrobenzimidazol-2-one], the Ki is under 0.1 µM.
On to `CCCN1CCN(CCCNC(=O)C(c2ccccc2)n2c(=O)n(S(=O)(=O)c3ccc(OC)cc3)c3ccc(Cl)cc32)CC1` (stereo not drawn) [Example 136, 2-[6-Chloro-3-(4-methoxybenzenesulfonyl)-2-oxo-2,3-dihydrobenzimidazol-1-yl]-2-phenyl-N-[3-(4-propylpiperazin-1-yl)propyl]-acetamide], for which the inhibition constant (Ki) fell in the range of 0.1 to 0.5 µM.
Regarding `COc1ccc(S(=O)(=O)n2c(=O)n(C(C(=O)N3CCN(c4ccncc4)CC3)c3ccccc3)c3cc(Cl)ccc32)cc1` (stereo not drawn) [Example 58, 5-Chloro-1-(4-methoxybenzenesulfonyl)-3-[2-oxo-1-phenyl-2-(4-pyridin-4-ylpiperazin-1-yl)ethyl]-1,3-dihydrobenzimidazol-2-one], the inhibition constant (Ki) is under 0.1 µM.
In the case of `COc1ccc(S(=O)(=O)n2c(=O)n(C(C(=O)N3CC[C@H](CN4CCNCC4)C3)c3ccccc3)c3cc(C#N)ccc32)cc1` (stereo partly drawn) [Example 226, 1-(4-Methoxy-benzenesulfonyl)-2-oxo-3-[2-oxo-1-phenyl-2-((R)-3-piperazin-1-ylmethyl-pyrrolidin-1-yl)-ethyl]-2,3-dihydro-1H-benzoimidazole-5-carbonitrile], the inhibitory constant (Ki) is under 0.1 µM.

As usually defined, the Ki is a dissociation constant, usually derived from enzyme kinetics or from competition with a known ligand.

The record behind these values is patent US8791148B2, “Substituted benzimidazolone derivatives, medicaments comprising them and their use” (AbbVie Deutschland GmbH & Co. KG, priority 2006, dated 2014).
